Peptide text beside a SMILES is read from it.
Molecular target: T1, peptide amidase from Xanthomonas maltophilia (Stenotrophomonas maltophilia, UniProt Q8RJN5)
T1 construct: wild type, not recombinant
T1 sequence (Q8RJN5 34-540): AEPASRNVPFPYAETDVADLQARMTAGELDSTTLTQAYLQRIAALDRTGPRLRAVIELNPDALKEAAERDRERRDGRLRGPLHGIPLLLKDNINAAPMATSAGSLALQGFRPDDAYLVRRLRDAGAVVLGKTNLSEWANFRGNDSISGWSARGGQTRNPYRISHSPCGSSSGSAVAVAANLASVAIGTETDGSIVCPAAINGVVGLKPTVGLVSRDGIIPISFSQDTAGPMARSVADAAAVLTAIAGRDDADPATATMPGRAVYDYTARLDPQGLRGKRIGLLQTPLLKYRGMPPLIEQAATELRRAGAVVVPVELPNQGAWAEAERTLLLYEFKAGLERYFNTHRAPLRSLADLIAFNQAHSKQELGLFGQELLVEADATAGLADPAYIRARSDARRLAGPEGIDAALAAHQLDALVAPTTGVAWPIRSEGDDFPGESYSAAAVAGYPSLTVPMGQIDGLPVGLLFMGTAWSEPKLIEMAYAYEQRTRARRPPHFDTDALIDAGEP
Assay: Substrate spectrum of peptide amidase, enzymatic determination of the released ammonia
Format: biochemical
Details: substrate 10 mM, 18 mU peptide amidase per ml, 50 mM tris/HCl pH 7.5, 30° C., 3 hours
Experimental: (§1) 18 mU of peptide amidase (purification state after the gel filtration) per ml test batch was used for the substrate spectrum of peptide amidase from Xanthomonas maltophilia. The concentration of the tested substrates was 10 mM in the reaction batch. Unless otherwise indicated, L-amino acid derivatives were used. The incubation took place in 50 mM tris/HCl, pH 7.5 at 30° C. for 3 hours. The reaction was stopped by heating for 5 minutes at 95° C. The determination of activity took place using enzymatic determination of the released ammonia (Bergmeyer, U. (1985): Methods of Enzymatic Analysis, p. 459, VCH Verlagsgesellschaft, Weinheim).

Row | Compound | Relative conversion (conversion of N-acetyl amino acid amides, Table 4b) [%] | Relative conversion (influence of protective group and adjacent amino acid, Table 4c) [%] | Relative conversion (conversion of dipeptide amides, Table 4a) [%]
1 | CC(=O)N[C@@H](CS)C(N)=O | 82 | – | –
2 | CC(=O)NC(CC(C)(C)C)C(N)=O (racemic) [Ac-D,L-neopentylglycine amide, Nα -acetyl-DL-neopentylglycine Amide] | 131 | – | –
3 | CSCCC(NC(N)=O)C(N)=O (racemic) [N-Carbamoyl-D,L-Met-NH2] | – | 77 | –
4 | CCOC(=O)NC(CCSC)C(N)=O (racemic) [N-Ethoxy-D,L-Met-NH2, Nα -ethoxycarbonyl-DL-methionine amide] | – | 124 | –
5 | COC(=O)NC(CCSC)C(N)=O (racemic) [N-Methoxy-D,L-Met-NH2, Nα -methoxycarbonyl-DL-methionine Amide] | – | 109 | –
6 | CC(=O)N[C@@H](C)C(N)=O [Ac-Ala-NH2] | 182 | – | –
7 | CC(=O)N[C@@H](CCCNC(=N)N)C(N)=O [Ac-Arg-NH2] | 110 | – | –
8 | CC(=O)N[C@@H](CCC(=O)O)C(N)=O [Ac-Glu-NH2] | 162 | – | –
9 | CC(=O)N[C@@H](Cc1c[nH]cn1)C(N)=O [Ac-His-NH2] | 177 | – | –
10 | CC[C@H](C)[C@H](NC(C)=O)C(N)=O [Ac-Ile-NH2] | 6 | – | –
11 | CC(=O)N[C@@H](CCCCN)C(N)=O [Ac-Lys-NH2] | 175 | – | –
12 | CC(=O)N[C@@H](Cc1ccccc1)C(N)=O [Ac-Phe-NH2] | 134 | – | –
13 | CC(=O)N[C@H](C(N)=O)c1ccccc1 [Ac-Phg-NH2, N-acetylphenylglycine amide] | 28 | – | –
14 | CC(=O)N1CCC[C@H]1C(N)=O [Ac-Pro-NH2] | 0 | – | –
15 | CC(=O)N[C@@H](CO)C(N)=O [Ac-Ser-NH2] | 58 | – | –
16 | CC(=O)N[C@H](C(N)=O)[C@@H](C)O [Ac-Thr-NH2] | 21 | – | –
17 | CC(=O)N[C@@H](Cc1c[nH]c2ccccc12)C(N)=O [Ac-Trp-NH2] | 157 | – | –
18 | CC(=O)N[C@@H](Cc1ccc(O)cc1)C(N)=O [Ac-Tyr-NH2] | 123 | 123 | –
19 | CC(=O)N[C@H](C(N)=O)C(C)C [Ac-Val-NH2] | 1 | – | –
20 | C[C@H](N)C(=O)N[C@@H](C)C(N)=O [Ala-Ala-NH2] (H-Ala-Ala-NH2) | – | 211 | 211
21 | C[C@H](N)C(=O)N[C@@H](CC(N)=O)C(=O)O [Ala-Asn-OH] (H-Ala-Asn-OH) | – | – | 0
22 | C[C@H](N)C(=O)N[C@@H](CCC(N)=O)C(=O)O [Ala-Gln-OH] (H-Ala-Gln-OH) | – | – | 0
23 | C[C@H](N)C(=O)NCC(N)=O [Ala-Gly-NH2] (H-Ala-Gly-NH2) | – | – | 39
24 | C[C@H](N)C(=O)N[C@@H](Cc1ccccc1)C(N)=O [Ala-Phe-NH2] | – | – | 218

Row | Compound | Relative conversion (conversion of N-acetyl amino acid amides, Table 4b) [%] | Relative conversion (influence of protective group and adjacent amino acid, Table 4c) [%] | Relative conversion (conversion of dipeptide amides, Table 4a) [%]
25 | CSCC[C@H](NC(=O)[C@@H](N)CCCNC(=N)N)C(N)=O [Arg-Met-NH2] (H-Arg-Met-NH2) | – | 125 | –
26 | NC(=O)[C@H](Cc1ccc(O)cc1)NC(=O)c1ccccc1 [Bz-Tyr-NH2] | – | 173 | –
27 | NCC(=O)N[C@@H](CC(N)=O)C(=O)O [Gly-Asn-OH] (H-Gly-Asn-OH) | – | – | 0
28 | NCC(=O)NCC(N)=O [Gly-Gly-NH2] | – | – | 8
29 | NCC(=O)N[C@@H](Cc1ccccc1)C(N)=O [Gly-Phe-NH2] (H-Gly-Phe-NH2) | – | – | 214
30 | NCC(=O)N[C@@H](Cc1ccc(O)cc1)C(N)=O [Gly-Tyr-NH2] (H-Gly-Tyr-NH2) | – | 174 | 174
31 | NC(=O)[C@H](Cc1ccccc1)NC(=O)[C@@H](N)Cc1cnc[nH]1 [His-Phe-NH2] (H-His-Phe-NH2) | – | – | 137
32 | CC(C)C[C@H](N)C(=O)N[C@@H](C)C(N)=O [Leu-Ala-NH2] (H-Leu-Ala-NH2) | – | 217 | 217
33 | CC(C)C[C@H](N)C(=O)NCC(N)=O [Leu-Gly-NH2] (H-Leu-Gly-NH2) | – | – | 54
34 | CC(C)C[C@H](N)C(=O)N[C@@H](Cc1ccccc1)C(N)=O [Leu-Phe-NH2] (H-Leu-Phe-NH2) | – | – | 203
35 | C[C@H](NC(=O)[C@@H](N)Cc1ccccc1)C(N)=O [Phe-Ala-NH2] | – | 203 | 203
36 | NC(=O)CNC(=O)[C@@H](N)Cc1ccccc1 [Phe-Gly-NH2] (H-Phe-Gly-NH2) | – | – | 51
37 | NC(=O)CNC(=O)[C@@H]1CCCN1 [Pro-Gly-NH2] (H-Pro-Gly-NH2) | – | – | 66
38 | NC(=O)[C@H](Cc1ccccc1)NC(=O)[C@@H]1CCCN1 [Pro-Phe-NH2] (H-Pro-Phe-NH2) | – | – | 158
39 | NC(=O)[C@H](Cc1ccccc1)NC(=O)[C@@H](N)CO [Ser-Phe-NH2] | – | – | 217
40 | NC(=O)CNC(=O)[C@@H](N)Cc1ccc(O)cc1 [Tyr-Gly-NH2] | – | – | 54
41 | NC(=O)[C@H](Cc1ccccc1)NC(=O)[C@@H](N)Cc1ccc(O)cc1 [Tyr-Phe-NH2] (H-Tyr-Phe-NH2) | – | – | 190
42 | NC(=O)[C@@H]1CCCN1C(=O)[C@@H](N)Cc1ccc(O)cc1 [Tyr-Pro-NH2] (H-Tyr-Pro-NH2) | – | – | 0
43 | CC(C)[C@H](N)C(=O)NCC(N)=O [Val-Gly-NH2] (H-Val-Gly-NH2) | – | – | 22
44 | CC(C)[C@H](N)C(=O)N[C@@H](Cc1ccccc1)C(N)=O [Val-Phe-NH2] (H-Val-Phe-NH2) | – | – | 140
45 | C[C@H](NC(=O)OCc1ccccc1)C(N)=O [Z-Ala-NH2] | – | 62 | –
46 | C[C@@H](NC(=O)OCc1ccccc1)C(N)=O [Z-D-Ala-NH2] | – | 0 | –
47 | N-acetyl-naphthylalanine amide [Ac-Nal-NH2] | 84 | – | –

Molecular target: T1, peptide amidase from Xanthomonas maltophilia
Assay: Enzymatic conversion of unprotected amino acid amides, thin-layer chromatography
Format: biochemical
Details: substrate 10 mM
Experimental: as §1
The following thin-layer chromatographic methods were used for the analysis of the substrates and products cited in table 4d. To this end 1 μl of the stopped reaction batch was applied.

Row | Compound | Conversion (unprotected amino acid amides) | Conversion (unprotected amino acid amides, Table 4d)
48 | C[C@H](N)C(N)=O [H-Ala-NH2] | 0 | 0
49 | C[C@@H](N)C(N)=O [H-D-Ala-NH2] | 0 | 0
50 | CC(C)C[C@@H](N)C(N)=O [H-D-Leu-NH2] | 0 | 0
51 | CC[C@H](C)[C@H](N)C(N)=O [H-Ile-NH2] | 0 | 0
52 | CC(C)C[C@H](N)C(N)=O [H-Leu-NH2] | 0 | 0
53 | NCCCC[C@H](N)C(N)=O [H-Lys-NH2] | 0 | 0
54 | CSCC[C@H](N)C(N)=O [H-Met-NH2] | 0 | 0
55 | NC(=O)[C@@H](N)Cc1ccccc1 [H-Phe-NH2] | 0 | 0

— patent US6333176A (Degussa Aktiengesellschaft, priority 1994, dated 2001)
